Measurements reported in patent US20220009914A1, “Analogs of Nitrofuran Antibiotics to Combat Resistance” (The Trustees of Indiana University, priority 2020, published 2022).
Read-outs that look alike come from different tables or passages of the source.

Tests used:
E. coli GroEL = target: T1, E. coli GroEL (Escherichia coli, UniProt P0A6F5); test: GroEL-mediated ATPase assay; assay type: biochemical
T1 construct: made in house; host or cells: NEB 5-alpha E. coli
Procedure: Evaluating compounds for inhibition in the GroEL-mediated ATPase assay. All compounds were evaluated for inhibiting E. coli GroEL-mediated ATPase activity as per our previously reported procedure although employing only GroEL in solution and not containing GroES or denatured MDH. Evaluating compounds for inhibition in the GroEL-mediated ATPase assay.
Reagent preparation: For this assay, four primary reagent solutions were prepared: 1) GroEL protein solution; 2) ATP initiation solution; 3) EDTA quench solution; 4) malachite green reporter solution. The GroEL protein solution consisted of 100 nM of GroEL in folding buffer (50 mM Tris-HCl, pH 7.4, 50 mM KCl, 10 mM MgCl2, and 1 mM DTT), which was prepared immediately prior to dispensing into the assay plates. For the ATP initiation solution, ATP solid was diluted into folding buffer to a final concentration of 2 mM. Quench solution contained 300 mM EDTA (pH 8.0). The malachite green reporter solution contained 0.034% w/v malachite green, 1.04% w/v ammonium molybdate, 1% Tween-20, and 1 M HCl dissolved in H2O.
Assay Protocol: First, 10 μL aliquots of the GroEL protein solution were dispensed into clear, flat-bottom 384-well polystyrene plates. […] After incubating for 45 minutes at 37° C., 10 μL of the EDTA quench solution was added to quench the reaction cycle. Then, 60 μL of the malachite green reporter solution was added and the plates were incubated at room temperature for 10 min. The absorbance of the malachite green-phosphate complex was measured at 600 nm using a Molecular Devices SpectraMax Plus384 microplate reader. A second set of baseline control plates were prepared analogously, but without GroEL protein solution, to correct for possible interference from compound absorbance or turbidity. […] Results presented represent the averages of IC50 values obtained from at least four replicates.
Evaluating analogs for inhibiting GroEL-mediated ATPase activity. […] Thus, we further tested analogs in a well-established GroEL ATPase assay that employed malachite green to monitor inorganic phosphate liberated as GroEL hydrolyzed ATP. Briefly, a solution of GroEL was incubated with test compounds (8-point, 3-fold dilution series) and the assay was initiated by addition of ATP. After incubating for 45 minutes, the ATPase reaction was quenched by the addition of EDTA. Malachite green was then added to the assay to bind and detect free phosphates in solution (absorbance detection at k=600 nm). If analogs inhibited ATPase activity, then there would be no free phosphates for malachite green to bind, leading to minimal absorbance at 600 nm.

E. coli GroEL/ES = target: T2, E. coli GroEL/ES (Escherichia coli, UniProt P0A6F5); test: GroEL/ES-mediated dMDH refolding assay in the presence of E. coli NfsB nitroreductase; assay type: biochemical
T2 construct: made in house; host or cells: GroEL in NEB 5-alpha E. coli; GroES in E. coli BL21 (DE3)
T2 sequence (P0A6F5 2-548): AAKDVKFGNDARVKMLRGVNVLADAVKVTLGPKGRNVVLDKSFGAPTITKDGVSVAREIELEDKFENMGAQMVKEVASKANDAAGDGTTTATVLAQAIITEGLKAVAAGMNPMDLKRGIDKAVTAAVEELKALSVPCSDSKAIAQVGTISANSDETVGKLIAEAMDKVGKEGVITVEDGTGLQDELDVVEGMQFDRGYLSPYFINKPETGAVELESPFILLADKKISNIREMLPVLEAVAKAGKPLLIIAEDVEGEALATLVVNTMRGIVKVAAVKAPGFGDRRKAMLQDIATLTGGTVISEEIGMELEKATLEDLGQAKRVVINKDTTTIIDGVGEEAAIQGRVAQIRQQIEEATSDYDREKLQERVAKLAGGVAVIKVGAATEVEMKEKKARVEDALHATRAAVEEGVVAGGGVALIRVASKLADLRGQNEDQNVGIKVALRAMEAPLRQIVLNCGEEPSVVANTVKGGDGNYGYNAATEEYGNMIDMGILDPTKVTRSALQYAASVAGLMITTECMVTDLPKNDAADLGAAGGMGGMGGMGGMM
Procedure: Evaluating compounds for inhibition in the GroEL/ES-mediated dMDH refolding assay and native MDH activity counter-screen in the presence of E. coli NfsB nitroreductase. These assays were performed nearly identically to those mentioned above, but with a couple distinct modifications. For both assays, 10 μg/mL of the E. coli NfsB nitroreductase enzyme (Sigma product #N9284) was added to the initial GroEL/ES-dMDH solution. For the GroEL/ES-dMDH refolding assay, after stamping with compounds, 10 μL of a 2.4 mM NADH solution was added, followed by a 10 minute incubation period at 37° C. to bioactivate the nitrofuran analogs. The remainder of the assay was conducted as in our standard protocol where no NfsB nitroreductase was present. […] For the native MDH activity counter-screen in the presence of E. coli NfsB nitroreductase, the assay was performed as described above for the GroEL/ES-dMDH refolding assay with NfsB; however, compound addition to the assay plates was conducted after the EDTA quench step, followed by a 10 minute incubation period at 37° C. to bioactivate the nitrofuran analogs. […] Results presented represent the averages of IC50 values obtained from at least four replicates in each assay.
Evaluating analogs for inhibiting GroEL/ES-mediated substrate refolding functions in the presence of the E. coli NfsB type-1 nitroreductase. […] However, our standard GroEL/ES-mediated refolding assays and native substrate reporter counter-screens were conducted without nitroreductases present.

[1] = with E. coli NfsB nitroreductase, read-out: NfsB-GroEL/ES-dMDH Refolding IC50
[2] = GroEL only, no GroES or dMDH, read-out: GroEL ATPase IC50

T1 sequence (P0A6F5 2-548): as above

Compound	IC50 (E. coli GroEL) [µM]	IC50 (E. coli GroEL/ES) [µM]	IC50 (E. coli GroEL/ES; [1]) [µM]	IC50 (E. coli GroEL; [2]) [µM]
CCOc1ccc(S(=O)(=O)Nc2ccc(C(=O)N/N=C/c3ccc(O)c4ncccc34)cc2)cc1 [Compound 15, 4-ethoxy-N-(4-(2-((8-hydroxyquinolin-5-yl)methylene)hydrazine-1-carbonyl)phenyl)benzenesulfonamide]	> 250	3.1		
CCOc1ccc(S(=O)(=O)Nc2ccc(C(=O)N/N=C/c3ccc([N+](=O)[O-])o3)cc2)cc1 [Compound 28, 4-ethoxy-N-(4-(2-((5-nitrofuran-2-yl)methylene)hydrazine-1-carbonyl)phenyl)benzenesulfonamide]	> 250	39		
O=Cc1ccc([N+](=O)[O-])o1 [Compound 41, reference compound]	> 250	> 83		
O=C(N/N=C/c1ccc([N+](=O)[O-])o1)c1ccc(NS(=O)(=O)c2cccs2)cc1 [Compound 26, N-(4-(2-((5-nitrofuran-2-yl)methylene)hydrazine-1-carbonyl)phenyl)thiophene-2-sulfonamide]	> 250	6		
COc1ccc(C(=O)N/N=C/c2ccc(O)cc2)cc1 [Compound 35, N′-(4-hydroxybenzylidene)-4-methoxybenzohydrazide]	> 250	> 83		
O=C(N/N=C/c1cccc2ccccc12)c1ccccc1 [Compound 34, N′-(naphthalen-1-ylmethylene)benzohydrazide]	> 250	> 83		
O=C(N/N=C/c1cccc2ncccc12)c1ccccc1 [Compound 32, N′-(quinolin-5-ylmethylene)benzohydrazide]	> 250	> 83		
O=C(N/N=C/c1ccc([N+](=O)[O-])o1)c1ccncc1 [Compound 19, N′-((5-nitrofuran-2-yl)methylene)isonicotinohydrazide]	> 250		23	
CCN(CC)S(=O)(=O)c1cccc(C(=O)N/N=C/c2ccc([N+](=O)[O-])o2)c1 [Compound 25, N,N-diethyl-3-(2-((5-nitrofuran-2-yl)methylene)hydrazine-1-carbonyl)benzenesulfonamide]	> 250	6		
CN(C)c1ccc(C(=O)N/N=C/c2ccc(O)c3ncccc23)cc1 [Compound 8, 4-(dimethylamino)-N′-((8-hydroxyquinolin-5-yl)methylene)benzohydrazide]	> 250	25		
O=C(N/N=C/c1ccc(O)c2ncccc12)c1ccc(NS(=O)(=O)c2cccs2)cc1 [Compound 13, N-(4-(2-((8-hydroxyquinolin-5-yl)methylene)hydrazine-1-carbonyl)phenyl)thiophene-2-sulfonamide]	> 250	1.9		
O=C(N/N=C/c1ccc(O)c2ccccc12)c1ccccc1 [Compound 30, N′-((4-hydroxynaphthalen-1-yl)methylene)benzohydrazide]	> 250	> 83		
O=C(N/N=C/c1ccc(O)c2ncccc12)c1ccncc1 [Compound 6, N′-((8-hydroxyquinolin-5-yl)methylene)isonicotinohydrazide]	> 250	> 83		
O=C(N/N=C/c1ccc([N+](=O)[O-])o1)c1cccs1 [Compound 16, N′-((5-nitrofuran-2-yl)methylene)thiophene-2-carbohydrazide]			7.7	> 250
O=C1CN(/N=C/c2ccc(O)c3ncccc23)C(=O)N1 [Compound 2, 1-(((8-hydroxyquinolin-5-yl)methylene)amino)imidazolidine-2,4-dione]	> 250	> 83		
O=[N+]([O-])c1ccc(O)c2ncccc12 [Nitroxoline, reference compound]	> 250	27		
COc1ccc(C(=O)NN)cc1 [Compound 42, reference compound]	> 250	> 83		

Compound	IC50 (E. coli GroEL) [µM]	IC50 (E. coli GroEL/ES) [µM]	IC50 (E. coli GroEL/ES; [1]) [µM]	IC50 (E. coli GroEL; [2]) [µM]
COc1ccc(C(=O)N/N=C/c2ccccc2)cc1 [Compound 37, N′-benzylidene-4-methoxybenzohydrazide]	> 250	> 83		
COc1ccc(C(=O)N/N=C/c2ccc([N+](=O)[O-])o2)cc1 [Compound 20, 4-methoxy-N′-((5-nitrofuran-2-yl)methylene)benzohydrazide]	> 250		10	
O=C(N/N=C/c1ccc(O)c2ncccc12)c1ccc(Cl)s1 [Compound 4, 5-chloro-N′-((8-hydroxyquinolin-5-yl)methylene)thiophene-2-carbohydrazide]	> 250	4		
O=C(N/N=C/c1ccc(O)c2ncccc12)c1cccc2ccccc12 [Compound 9, N′-((8-hydroxyquinolin-5-yl)methylene)-1-naphthohydrazide]	> 250	7.7		
O=Cc1ccc(O)c2ncccc12 [Compound 40, reference compound]		> 83		> 250
COc1ccc(C(=O)N/N=C/c2ccco2)cc1 [Compound 39, N′-(furan-2-ylmethylene)-4-methoxybenzohydrazide]	> 250	> 83		
O=C(N/N=C/c1ccccc1)c1ccccc1 [Compound 38, N′-benzylidenebenzohydrazide]	> 250	> 83		
O=C(N/N=C/c1ccc([N+](=O)[O-])o1)c1cccc2ccccc12 [Compound 22, N′-((5-nitrofuran-2-yl)methylene)-1-naphthohydrazide]	> 250	5.3		
O=C(N/N=C/c1ccc(O)c2ncccc12)c1ccc(O)cc1 [Compound 7, 4-hydroxy-N′-((8-hydroxyquinolin-5-yl)methylene)benzohydrazide]	> 250	16		
COc1ccc(C(=O)N/N=C/c2cccc3ccccc23)cc1 [Compound 33, 4-methoxy-N′-(naphthalen-1-ylmethylene)benzohydrazide]	> 250	> 83		
O=C(N/N=C/c1ccc(O)c2ncccc12)c1cccc(Oc2ccccc2)c1 [Compound 11, N′-((8-hydroxyquinolin-5-yl)methylene)-3-phenoxybenzohydrazide]	> 250	21		
CCN(CC)S(=O)(=O)c1cccc(C(=O)N/N=C/c2ccc(O)c3ncccc23)c1 [Compound 12, N,N-diethyl-3-(2-((8-hydroxyquinolin-5-yl)methylene)hydrazine-1-carbonyl)benzenesulfonamide]	> 250	21		
COc1ccc(C(=O)N/N=C/c2ccc(O)c3ncccc23)cc1 [Compound 1, N′-((8-hydroxyquinolin-5-yl)methylene)-4-methoxybenzohydrazide]	> 250	66		
O=C(N/N=C/c1ccc(O)c2ncccc12)c1ccccc1Oc1ccccc1 [Compound 10, N′-((8-hydroxyquinolin-5-yl)methylene)-2-phenoxybenzohydrazide]	> 250	15		
O=C(N/N=C/c1ccc([N+](=O)[O-])o1)c1ccccc1 [Compound 18, N′-((5-nitrofuran-2-yl)methylene)benzohydrazide]	> 250		12	
COc1ccc(C(=O)N/N=C/c2cccc3ncccc23)cc1 [Compound 31, 4-methoxy-N′-(quinolin-5-ylmethylene)benzohydrazide]	> 250	> 83		
